In US4870097A, “Pharmaceutical use of derivatives of tryptophan” (priority 1984, dated 1989):

Legend:
[1] = system: guinea pig gall bladder contracted with CCK-8; experiment: Anti-CCK activity on guinea pig gall bladders in vitro; assay type: biochemical; details: CCK-8 10 ng/ml, concentration antagonising 50% of contracting effect
Protocol: A longitudinal strip of guinea pig gall bladder is placed in a bath of Krebs for isolated organs at a temperature of 32° C. and oxygenated continuously with an oxygen-CO2 mixture (95-5 V/V).
The […] contractions are detected by means of a force transducer and recorded.
The gall bladder is contracted with the use of a CCK-8 solution at a concentration of 10 ng/ml; the antagonistic activity of the compounds of the invention towards the contracting effect of the CCK is determined with the use of different concentrations, the ED50 value, that is the concentration of the compound in mcg/ml capable of antagonising 50% of the contracting effect of the CCK, being determined.
The results obtained are set out in the following table which gives the compounds tested and the ED50 values which are calculated by the method of regression on a test of at least three experiments for each compound studied.

[2] = system: analgesic activity of morphine; experiment: Tail Flick Test: increase in the analgesic effect of morphine; assay type: in vivo, rats; details: for percentage variation in the latency of the pain sensation, 10' / percentage variation in the latency of the pain sensation, 20' / percentage variation in the latency of the pain sensation, 30' / percentage variation in the latency of the pain sensation, 45' / percentage variation in the latency of the pain sensation, 60' / percentage variation in the latency of the pain sensation, 90' / M(10'-90') average percentage variation: compound 10 mg/kg i.p. + morphine 2 mg/kg (row Morphine: alone); for percentage variation in the latency of the pain sensation, 10' / percentage variation in the latency of the pain sensation, 20' / percentage variation in the latency of the pain sensation, 30' / percentage variation in the latency of the pain sensation, 45' / percentage variation in the latency of the pain sensation, 60' / percentage variation in the latency of the pain sensation, 90': ± S.E.; for M(10'-90') average percentage variation: mean 10'-90'; for Potency ratio relative to morphine alone: rat, in vivo
Protocol: Increase in the analgesic effect of analgesic-narcotic drugs in rats in the Tail Flick Test
The method is that described by Harris et al. (J. Pharmacol. Exp. Ther. 143 (1964) 141-148).
Male rats are used which have a weight of about 150-200 g and which have not been fasting. A point is chosen on the tail and this is irradiated by a heat source (75° C.) and the time (in seconds) for which the animal remains without moving its tail is measured.
A maximum period of time under the heat source of 8 seconds is chosen after which the animal is, in any case, removed in order to avoid tissue damage. The measurement is effected before (controls) and after treatment with the drugs.
. The percentage variation is calculated for each individual animal by the following formula: [formula] The measurements are carried out 10, 20, 30, 45, 60 and 90 minutes after treatment with the analgesics.
The results obtained are given in Table 1 which records the groups treated and the doses administered, the
average percentage variations (calculated on groups of five animals) in […]

| Structure (SMILES) | Anti CCK-8 activity, ED50 [1] | percentage variation in the latency of the pain sensation, 10' [2] [%] | percentage variation in the latency of the pain sensation, 20' [2] [%] | percentage variation in the latency of the pain sensation, 30' [2] [%] | percentage variation in the latency of the pain sensation, 45' [2] [%] | percentage variation in the latency of the pain sensation, 60' [2] [%] | percentage variation in the latency of the pain sensation, 90' [2] [%] | M(10'-90') average percentage variation [2] [%] | Potency ratio relative to morphine alone [2] |
| --- | --- | --- | --- | --- | --- | --- | --- | --- | --- |
| N#Cc1ccc(COC(=O)N[C@@H](Cc2c[nH]c3ccccc23)C(=O)O)cc1 [Compound 11] | 34.3 mg/L | 53.4 ± 13.5 | 80.0 ± 13.0 | 90.4 ± 9.6 | 84.9 ± 15.1 | 55.6 ± 18.3 | 50.9 ± 20.7 | 72.9 | 2.45 |
| O=C(N[C@@H](Cc1c[nH]c2ccccc12)C(=O)O)c1ccc(Cl)cc1 [Compound 12] | 206.0 mg/L | 42.2 ± 19.4 | 50.5 ± 17.0 | 69.7 ± 19.8 | 68.9 ± 13.4 | 32.7 ± 20.1 | 16.3 ± 7.4 | 49.1 | 1.65 |
| O=C(N[C@@H](Cc1c[nH]c2ccccc12)C(=O)O)c1ccc(Br)cc1 [Compound 13] | 158.0 mg/L | 26.7 ± 5.6 | 72.6 ± 13.0 | 77.2 ± 10.0 | 86.2 ± 8.9 | 38.8 ± 11.3 | 12.6 ± 9.8 | 52.3 | 1.75 |
| O=C(N[C@@H](Cc1c[nH]c2ccccc12)C(=O)O)c1ccc(F)cc1 [Compound 14] | 233.2 mg/L | 47.9 ± 21.0 | 90.2 ± 9.8 | 80.0 ± 12.5 | 67.7 ± 19.8 | 70.5 ± 18.1 | 61.5 ± 11.8 | 69.6 | 2.33 |
| O=C(N[C@@H](Cc1c[nH]c2ccccc12)C(=O)O)c1ccc(I)cc1 [Compound 15] | IN (inactive up to 400 mcg/ml) | 77.7 ± 13.8 | 81.7 ± 12.3 | 91.0 ± 9.0 | 89.0 ± 11.0 | 70.4 ± 17.2 | 60.3 ± 12.6 | 78.3 | 2.63 |
| O=C(N[C@@H](Cc1c[nH]c2ccccc12)C(=O)O)c1cccc(Cl)c1 [Compound 16] | 197.5 mg/L | 25.2 ± 21.8 | 39.5 ± 26.1 | 37.7 ± 22.9 | 33.1 ± 19.9 | 25.9 ± 18.1 | 9.7 ± 11.9 | 28.5 | 0.96 |
| O=C(N[C@@H](Cc1c[nH]c2ccccc12)C(=O)O)c1ccc(Cl)c(Cl)c1 [Compound 17] | 398.0 mg/L | 96.9 ± 4.1 | 100.0 ± 0.0 | 100.0 ± 0.0 | 50.3 ± 10.1 | 85.4 ± 11.5 | 29.6 ± 4.5 | 85.0 | 2.85 |
| Cc1ccc(C(=O)N[C@@H](Cc2c[nH]c3ccccc23)C(=O)O)cc1 [Compound 18] | IN (inactive up to 400 mcg/ml) | 7.8 ± 16.1 | 14.9 ± 17.1 | 42.1 ± 18.3 | 26.6 ± 20.5 | 32.7 ± 25.9 | 41.1 ± 24.3 | 27.5 | 0.93 |
| CCc1ccc(C(=O)N[C@@H](Cc2c[nH]c3ccccc23)C(=O)O)cc1 [Compound 19] | 135.2 mg/L | 41.9 ± 12.8 | 43.9 ± 19.5 | 61.3 ± 18.1 | 49.4 ± 19.5 | 28.5 ± 17.0 | 14.4 ± 12.9 | 39.9 | 1.34 |
| Cc1cccc(C(=O)N[C@@H](Cc2c[nH]c3ccccc23)C(=O)O)c1 [Compound 21] | IN (inactive up to 400 mcg/ml) | 30.5 ± 19.7 | 89.0 ± 11.0 | 93.9 ± 6.1 | 85.9 ± 14.1 | 99.2 ± 0.8 | 56.3 ± 17.4 | 77.3 | 2.59 |
| CCCc1ccc(C(=O)N[C@@H](Cc2c[nH]c3ccccc23)C(=O)O)cc1 [Compound 22] | 25.7 mg/L | 18.5 ± 5.3 | 39.3 ± 10.5 | 32.2 ± 7.9 | 37.1 ± 13.9 | 35.5 ± 10.0 | 24.5 ± 6.6 | 31.2 | 1.05 |
| CCCCc1ccc(C(=O)N[C@@H](Cc2c[nH]c3ccccc23)C(=O)O)cc1 [Compound 23] | 74.0 mg/L | 47.9 ± 15.7 | 50.3 ± 10.1 | 56.9 ± 20.6 | 67.2 ± 20.9 | 41.1 ± 16.3 | 36.1 ± 18.0 | 49.9 | 1.67 |
